As usually defined, the IC50 is the concentration at which inhibition is half-maximal.

This assay can be described thus: Inhibition of IFNalpha in human whole blood assessed as reduction in IFNalpha-induced STAT phosphorylation by fluorescence assay. It is filed as tissue-based.
In the case of `COC(=O)Nc1cc(Nc2cccc(-c3noc(CN4CCCCS4(=O)=O)n3)c2OC)c(C(N)=O)nn1`, the 50% inhibitory concentration (IC50) turned out to be 30 nM. As for `[2H]C([2H])([2H])NC(=O)c1nnc(NC(=O)OC)cc1Nc1cccc(-c2noc(CN3CCCCS3(=O)=O)n2)c1OC`, the figure is 60 nM; as for `COC(=O)Nc1cc(Nc2cccc(-c3ncn(C)n3)c2OC)c(C(N)=O)nn1`, 70 nM; as for `[2H]C([2H])([2H])NC(=O)c1nnc(NC(=O)NCC=C)cc1Nc1cccc(-c2ncn(C)n2)c1OC`, 60 nM.

Turning to `[2H]C([2H])([2H])NC(=O)c1nnc(NC(=O)NCC#C)cc1Nc1cccc(-c2ncn(C)n2)c1OC`, the IC50 came to 60 nM.

Turning to `[2H]C([2H])([2H])NC(=O)c1nnc(NC(=O)NCC)cc1Nc1cccc(-c2ncn(C)n2)c1OC`, the IC50 amounted to 20 nM.

Source of the values: ChEMBL document CHEMBL4725460, “Novel Amide-Substituted Heterocyclic Compounds for Treating Inflammatory and Autoimmune Diseases” (ACS Med Chem Lett, 2020).
